# Reference: ChEMBL document CHEMBL2439955, “Synthesis and biological evaluation of 5-carbamoyl-2-phenylpyrimidine derivatives as novel and potent PDE4 inhibitors” (Bioorg Med Chem, 2013)
# Experiments:
# [1] = molecular target: T1, 3',5'-cyclic-AMP phosphodiesterase 4B (Homo sapiens, UniProt Q07343); test: Inhibition of recombinant human PDE4B using cAMP as substrate after 30 mins
# Splenocyte = test: Inhibition of LPS-induced TNFalpha production in Balb/c mouse splenocytes after 18 to 24 hrs by AlphaLISA assay; assay type: functional, cell-based
# [2] = Terminal half life in mouse at 10 mg/kg, ip; assay type: ADME, organism-based; set-up: dose 10 mg/kg, route intraperitoneal; settings: in vivo, read-out: beta t1/2 (converted)
# Mus musculus [3] = test: Inhibition of LPS-induced pulmonary neutrophilia in ip dosed BALB/c mouse assessed as reduction of neutrophils level in bronchoalveolar lavage fluid administered 30 mins before LPS challenge measured after 4 to 5 hrs; assay type: functional; settings: read-out: ID50 (the source's name)
# [4] = Octanol-phosphate buffered saline distribution coefficient, log D of the compound at pH 7.4; assay type: physicochemical
# [5] = Metabolic stability of the compound in mouse liver microsomes after 30 mins; assay type: ADME, Microsome; settings: read-out: Stability
# [6] = Cmax in mouse at 10 mg/kg, ip; assay type: ADME, organism-based; set-up: dose 10 mg/kg, route intraperitoneal; settings: in vivo
# [7] = AUC in mouse at 10 mg/kg, ip; assay type: ADME, organism-based; set-up: dose 10 mg/kg, route intraperitoneal; settings: plasma
# [8] = molecular target: T1, 3',5'-cyclic-AMP phosphodiesterase 4B; test: Inhibition of recombinant human PDE4B using cAMP as substrate at 1 uM after 30 mins
# [9] = molecular target: T1, 3',5'-cyclic-AMP phosphodiesterase 4B; test: Inhibition of recombinant human PDE4B using cAMP as substrate at 3 uM after 30 mins
# [10] = molecular target: T1, 3',5'-cyclic-AMP phosphodiesterase 4B; test: Inhibition of recombinant human PDE4B using cAMP as substrate at 10 uM after 30 mins
# Mus musculus [11] = test: Inhibition of LPS-induced pulmonary neutrophilia in BALB/c mouse assessed as reduction of neutrophils level in bronchoalveolar lavage fluid at 1 mg/kg administered intratracheally 30 mins before LPS challenge measured after 4 to 5 hrs; assay type: functional; settings: route endotracheal
# T1 sequence (Q07343 whole entry): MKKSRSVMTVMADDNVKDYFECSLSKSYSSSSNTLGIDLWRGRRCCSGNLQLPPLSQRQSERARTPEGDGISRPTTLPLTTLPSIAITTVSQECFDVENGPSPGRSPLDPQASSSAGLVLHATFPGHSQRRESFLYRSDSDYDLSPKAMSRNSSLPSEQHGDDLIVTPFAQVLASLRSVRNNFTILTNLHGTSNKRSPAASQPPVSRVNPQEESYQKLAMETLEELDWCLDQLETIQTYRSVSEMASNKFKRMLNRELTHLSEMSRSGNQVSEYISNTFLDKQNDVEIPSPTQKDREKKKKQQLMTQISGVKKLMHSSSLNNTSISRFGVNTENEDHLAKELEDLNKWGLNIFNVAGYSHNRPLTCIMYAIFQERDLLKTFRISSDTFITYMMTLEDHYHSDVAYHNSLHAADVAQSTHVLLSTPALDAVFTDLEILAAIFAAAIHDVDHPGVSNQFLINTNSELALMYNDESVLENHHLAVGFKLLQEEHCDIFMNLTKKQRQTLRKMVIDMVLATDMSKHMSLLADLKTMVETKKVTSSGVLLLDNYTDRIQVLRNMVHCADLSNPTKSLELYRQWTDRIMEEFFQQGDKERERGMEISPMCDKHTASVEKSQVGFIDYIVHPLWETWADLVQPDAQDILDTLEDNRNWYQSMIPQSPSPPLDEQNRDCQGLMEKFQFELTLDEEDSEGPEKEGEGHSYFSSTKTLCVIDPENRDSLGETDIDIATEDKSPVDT
IC50 [1],IC50 (Splenocyte),Compound,further results
16 nM,18 nM,NC(=O)c1cnc(-c2ccccc2)nc1Nc1ccc(CC(=O)NCC2CC2)cc1,–
120 nM,74 nM,NC(=O)Cc1ccc(Nc2nc(-c3ccccc3)ncc2C(N)=O)cc1,–
8200 nM,–,CNC(=O)c1cnc(-c2ccccc2)nc1Nc1ccc(CC(=O)O)cc1,–
47 nM,460 nM,O=C(O)Cc1ccc(Nc2nc(-c3ccccc3)nc3c2C(=O)NCC3)cc1,–
7.1 nM,43 nM,NC(=O)c1cnc(-c2ccccc2)nc1Nc1ccc(CC(=O)NO)cc1,–
7.3 nM,0.21 nM,CC(C)CNC(=O)Cc1ccc(Nc2nc(-c3ccccc3)nc3c2C(=O)NCC3)cc1,inhibition in vivo at 1 mg/kg (Mus musculus [11]): 41%
2000 nM,–,CSc1nc(-c2ccccc2)nc(Nc2ccc(CC(=O)O)cc2)c1C(N)=O,–
4000 nM,–,Cc1nc(-c2ccccc2)nc(Nc2ccc(CC(=O)O)cc2)c1C(N)=O,–
200 nM,690 nM,NC(=O)c1cnc(-c2ccccc2)nc1Nc1ccc(CC(=O)O)cc1,–
120 nM,47 nM,CCCNC(=O)Cc1ccc(Nc2nc(-c3ccccc3)ncc2C(N)=O)cc1,–

# Further lines, the molecule ahead of its results:
Compound,IC50 [1],IC50 (Splenocyte),further results
C=C(C)c1ncc(C(N)=O)c(Nc2ccc(CC(=O)NCC(C)(C)C)cc2)n1,3.7 nM,9.6 nM,–
CC(C)(C)CNC(=O)Cc1ccc(Nc2nc(-c3ccccc3)ncc2C(N)=O)cc1,8.3 nM,3 nM,half-life [2]: 3.2 h; ED50 (Mus musculus [3]): 16 mg/kg; logD [4]: 4.9; remaining at 0.5 h [5]: 52%; Cmax [6]: 1490 ng/mL; AUC [7]: 3990 ng·h/mL
CC(C)(C)CNC(=O)Cc1ccc(Nc2nc(-c3ccsc3)ncc2C(N)=O)cc1,–,–,inhibition [8]: 18%
CC(C)(C)CNC(=O)Cc1ccc(Nc2nc(NN3CCCCC3)ncc2C(N)=O)cc1,6500 nM,–,–
CC(C)(C)CNC(=O)Cc1ccc(Nc2nc(-c3cccnc3)ncc2C(N)=O)cc1,29 nM,23 nM,–
CS(=O)(=O)NC(=O)Cc1ccc(Nc2nc(-c3ccccc3)ncc2C(N)=O)cc1,490 nM,4800 nM,–
O=C(O)Cc1ccc(Nc2nc(-c3ccccc3)ncc2C(=O)NO)cc1,–,–,inhibition [9]: 42%
CC(C)(C)CNC(=O)Cc1ccc(Nc2nc(-c3cncnc3)ncc2C(N)=O)cc1,110 nM,–,–
CN(C)C(=O)c1cnc(-c2ccccc2)nc1Nc1ccc(CC(=O)O)cc1,–,–,inhibition [10]: 8%
CC(C)(C)NC(=O)Cc1ccc(Nc2nc(-c3ccccc3)ncc2C(N)=O)cc1,110 nM,49 nM,–
CC(C)CNC(=O)Cc1ccc(Nc2nc(-c3ccccc3)ncc2C(N)=O)cc1,11 nM,12 nM,–
CN(C)c1ncc(C(N)=O)c(Nc2ccc(CC(=O)NCC(C)(C)C)cc2)n1,16 nM,7.1 nM,–
CC(C)(C)CNC(=O)Cc1ccc(Nc2nc(-c3ccc4[nH]ccc4c3)ncc2C(N)=O)cc1,8.2 nM,840 nM,–
CC(C)(C)CNC(=O)Cc1ccc(Nc2nc(N3CCCC3)ncc2C(N)=O)cc1,13 nM,3.8 nM,–
CC(C)(C)CNC(=O)Cc1ccc(Nc2nc(-c3ccoc3)ncc2C(N)=O)cc1,11 nM,1000 nM,–
O=C(Nc1c(Cl)cncc1Cl)c1ccc(OC(F)F)c(OCC2CC2)c1 [ROFLUMILAST],–,1.2 nM,inhibition in vivo at 1 mg/kg (Mus musculus [11]): 47%
